Here are results for two compounds from patent US20210024542A1 (Torcept Therapeutics, Inc., priority 2018, published 2021).

Each structure is given as a SMILES string. pEC50, pIC50: −log10 of the molar value.

Assay type in all cases: cell-based, human
The subject of assay [1] is U-138MG. In words: OncoPanel cell proliferation assay, U-138MG. To be noted: U-138MG; for Cell Count Activity Area: scale 0-10. The method, then:
(§1) Cells were grown in RPMI 1640, 10% FBS, 2 mM L-alanyl-L-glutamine, 1 mM Na pyruvate, or a special medium. Cells were seeded into 384-well plates and incubated in a humidified atmosphere of 5% CO2 at 37° C. Compounds were added the day following cell seeding. At the same time, a time zero untreated cell plate was generated. After a 3-day incubation period, cells were fixed and stained to allow fluorescence imaging of nuclei. Compounds (1 mM stock solutions) were serially diluted in half-log steps from the highest test concentration ([…]), and assayed over 10 concentrations with a maximum assay concentration of 0.1% DMSO. Automated fluorescence microscopy was carried out using a Molecular Devices ImageXpress Micro XL high-content imager, and images were collected with a 4× objective. 16-bit TIFF images were acquired and analyzed with MetaXpress 5.1.0.41 software.
(§2) Cell proliferation was measured by the fluorescence intensity of an incorporated nuclear dye. The output is referred to as the relative cell count, where the measured nuclear intensity is transformed to percent of control (POC) using the following formula: […]
(§3) Cellular response parameters were calculated using nonlinear regression to a sigmoidal single-site dose response model:
(§4) Where y is a response measured at concentration x, A and B are the lower and upper limits of the response, C is the concentration at the response midpoint (EC50), and D is the Hill Slope (Ref. 1).
EC50 is the test compound concentration at the curve inflection point or half the effective response (parameter C of the fitted curve solution). GI50 is the concentration needed to reduce the observed growth by half (midway between the curve maximum and the time zero value). “Cell Count Activity Area” is an estimate of the integrated area above the curve (Barretina, et al. The Cancer Cell Line Encyclopedia enables predictive modelling of anticancer drug sensitivity. Nature 483: 603-607). […] In rare instances, values <0 or >10 may be observed. […] Curve-fitting, calculations, and report generation was performed using a custom data reduction engine and MathIQ based software (AIM).

Assay [2] has as its system DMS114. In words: OncoPanel cell proliferation assay, DMS114. On the procedure: as §1, with “Cells” for “Cells were grown in RPMI 1640, 10% FBS, 2 mM L-alanyl-L-glutamine, 1 mM Na pyruvate, or a special medium. Cells”
as §2, §3, §4
(§5) GI50 is the concentration needed to reduce the observed growth by half (midway between the curve maximum and the time zero value). […] In rare instances, values <0 or >10 may be observed. […] Curve-fitting, calculations, and report generation was performed using a custom data reduction engine and MathIQ based software (AIM).

Assay [3] deals with U2OS. In words: OncoPanel cell proliferation assay, U2OS. On the procedure:
as §1, with “Cells” for “Cells were grown in RPMI 1640, 10% FBS, 2 mM L-alanyl-L-glutamine, 1 mM Na pyruvate, or a special medium. Cells”
as §2, §3, §4, §5

With `CO[C@H]1C[C@@H]2CC[C@@H](C)[C@@](O)(O2)C(=O)C(=O)N2CCCC[C@H]2C(=O)O[C@H]([C@H](C)C[C@@H]2CC[C@@H](O)[C@H](OC)C2)CC(=O)[C@H](C)/C=C(\C)[C@@H](O)[C@@H](OC)C(=O)[C@H](C)C[C@H](C)/C=C/C=C/C=C/1C` [Rapamycin, reference compound], the pIC50 (as a rule, −log10 of the IC50, conventionally taken in molar units) was below 6.00 in assay [1] (Homo sapiens, U138-MG, 72 h, 3-day incubation, read-out: Cell Count IC50); below 6.00 in assay [2] (Homo sapiens, DMS-114, 72 h, DMS114, 3-day incubation, read-out: Cell Count IC50); below 6.00 in assay [3] (Homo sapiens, 72 h, 3-day incubation, read-out: Cell Count IC50). In addition, the “Cell Count Activity Area” value turned out to be 3.14 in assay [1]; 4.14 in assay [2] (DMS114, scale 0-10); 3.04 in assay [3] (scale 0-10). In addition, in assay [3] (Homo sapiens, 72 h, 3-day incubation, read-out: Cell Count EC50), the pEC50 (usually the EC50 on a negative log10 scale, so that one unit is a factor of ten) is 9.19.
On to `CN[C@@H]1C[C@H]2O[C@@](C)([C@@H]1OC)n1c3ccccc3c3c4c(c5c6ccccc6n2c5c31)C(=O)NC4` [Staurosporine, reference compound], for which the “Cell Count Activity Area” value in assay [1] was determined as 3.72. Besides, in assay [2] (Homo sapiens, DMS-114, 72 h, DMS114, 3-day incubation, read-out: Cell Count EC50), the negative logarithm of the EC50 (pEC50) was 7.68.
